Data taken from patent publication US20250186474A1 (CHINA CHEMICAL & PHARMACEUTICAL CO., LTD., priority 2023, published 2025).

Columns and labels:
[1] = Stress test of compositions with different EIDD-1931 concentrations (60° C., 7 and 14 days); format: physicochemical; conditions: API
Procedure: Therefore, the concentration of EIDD-1931 was adjusted, and another stress test was conducted to evaluate how the resulting drugs degrade in 7 and 14 days.

[2] = Solubility / precipitation in the pharmaceutical solution composition; format: physicochemical; conditions: drug prepared with 20 mg/ml

Single-impurity percentage [1]: 0.01/0.01%
total-impurity percentage [1]: 0.01/0.01%
Theoretical value ([1]; impurity test): 93.25%
precipitation [2]: had precipitation issues
Compound: O=c1nc(NO)ccn1[C@@H]1O[C@H](CO)[C@@H](O)[C@H]1O [EIDD-1931, β-D-N4-hydroxycytidine]
